Earlier results as cited in patent publication US11311620B2, “Neoadjuvant therapy for bladder cancer” (PHOTOCURE ASA, priority 2016, dated 2022).

Tests used:
bladder cancer = settings: neoadjuvant cisplatin-containing chemotherapy
MIBC = settings: patients who had cystectomy; HAL-guided TUR prior to cystectomy; 268 consecutive patients, retrospective
NMIBC = settings: patients with NMIBC

Compound	absolute improvement in survival at 5 years (bladder cancer)	3-year overall survival (OS) (MIBC)	3-year recurrence-free survival (RFS) (MIBC)	rate of residual tumor after TUR (NMIBC)	recurrence free survival (RFS) rates compared to white light TUR alone (NMIBC)	detection of papillary tumors and flat carcinoma-in-situ (CIS) lesions (NMIBC; compared to white light alone)
N.N.[Cl][Pt][Cl] [cisplatin]	5%					
CCCCCCOC(=O)CCC(=O)CN [HAL, n-hexyl 5-amino-4-oxo-pentanoate]		65.0%	69.8%	reduced the rate of residual tumor	superior recurrence free survival (RFS) rates	improved detection
